Assay: Human HepG2 cell viability assay in 384 well format
Type: toxicity, cell-based
Parameters: dose 125 nL, time 70.5 hour; cytotoxicity at 70.5 h: concentration not given beside the values
Details: HepG2 cells, read-out: Inhibition

SMILES	cytotoxicity at 70.5 h [%]
O=C1NC2(Cc3ccccc31)CN(CC1CCNC1)C2 (centres undefined)	-11.5
O=C(NCC1(O)CCc2ccccc21)Nc1ccc2c(c1)OCO2 (centres undefined)	-3.18
CCc1nc(C2CCCN(C(=O)c3c[nH]c(C(C)C)n3)C2)no1 (centres undefined)	-10.9
CCn1cnnc1CNC(=O)N1CCC(CN2CCCCCC2)CC1	-7.73
CCc1ncc2c(n1)CN(CC(=O)Nc1nnc(C)s1)CC2	-3.21
O=C(c1cscn1)N1CCCCC1c1nc2cc(F)ccc2[nH]1 (centres undefined)	-1.08
Cc1c(C)n(Cc2ccncc2)c2nc3c(c(N)c12)CCCC3	-7.64
COCCN1CCN(Cc2ccncc2)c2ncccc2C1	-11
COc1ccccc1CN(C)c1nccc(-c2cn(C)nc2C)n1	-8.86
CC1(C)CNC(=O)c2nc(CCCN3CCCC3)[nH]c2C1	-8.44
COCC1CCN(CCCc2cccc(OC)c2)CC1	30.7
Cc1ccc(-c2cc(-c3c(C)nn(CCO)c3C)c(C#N)c(N)n2)cc1	0.809
CC1COc2ccccc2N1C(=O)c1cscn1 (centres undefined)	-9.82
Cc1noc([C@H]2C[C@@H]3CCN(C(=O)c4cccn4C)C[C@H]3O2)n1	-3.46
COc1ccc(N2CCN(C(=O)COc3nccc(C)n3)CC2)cc1	-3.87
O=C(C1CCCC1)N1CCC2(CC1)COCCN2CC1CC1	-12.4
CN1CCN(C[C@@H]2CN(C(=O)CCc3cn[nH]c3)C[C@@H]2CO)CC1	-6.13
Clc1cccc(-n2cnnn2)c1N1CCCC1	3.81
NC(=O)C1(c2cnccn2)CCCN1Cc1ccccn1 (centres undefined)	-3.76
COC(=O)c1cccc(S(=O)(=O)NCc2cccnc2N(C)C)c1	-2.85
COc1ccccc1C(C)CC(=O)N1CCN(S(N)(=O)=O)CC1 (centres undefined)	-3.69
CCS(=O)(=O)c1ccc(N2CCC(NC(=O)NC(C)CO)CC2)cc1 (centres undefined)	-1.95
CN(C(=O)Cc1ccn(C)c1)C1CCCN(C2Cc3ccccc3C2)C1 (centres undefined)	1.52

SMILES	cytotoxicity at 70.5 h [%]
CS(=O)(=O)Cc1cccc(CNS(=O)(=O)c2ccc(F)c(F)c2)c1	-8.75
Oc1ccccc1CN1CCCCCC1c1cccs1 (centres undefined)	-5.04
NC(=O)C1CCCN1Cc1ccccc1NC(=O)Cc1cccs1 (centres undefined)	13
CC(NC(=O)Cc1cccs1)c1nnc2n1CCC2 (centres undefined)	-7.18
CC(=O)N(CCc1ccccc1)CC(=O)NC1(C#N)CC1	-0.397
COc1cccc2[nH]cc(CCNC(=O)N3CCC[C@H]3CO)c12	-1.09
CN(C)C1CCCN(C(=O)NCCNC(=O)C2CCCC2)C1 (centres undefined)	-1.02
Cc1ccc(-n2ncc(C(=O)NC3CC(C)(C)NC(C)(C)C3)c2N)cc1	19.8
Cc1nccn1-c1ccc(=O)n(CCNC(=O)Cc2ccccc2)n1	-12.3
CN(Cc1nc(COc2ccccc2)no1)CC1Cc2ccccc2O1 (centres undefined)	-3.44
CCOc1ccc(CNCCCn2ccnc2)cc1OC	-13.2
COCC(=O)Nc1ccc(-c2noc([C@@H]3CCCN3C)n2)cn1	-7.79
CC(Cn1cccn1)NCC(=O)NCCc1cccs1 (centres undefined)	-4.39
Cc1noc(C)c1CN1CCN(C(C)c2nc(C3CC3)no2)CC1 (centres undefined)	-3.54
COc1cnc(CSc2nnc(C)s2)cc1OCC(N)=O	15.1
CCOC(=O)N1CCC(NCC2CCN(c3cnn(C)c(=O)c3)C2)CC1 (centres undefined)	-6.78
CN(C)CCNC(=O)c1ccc(S(=O)(=O)N[C@@H]2CCNC2)cc1	-13.7
CSCCc1c(-c2ccccc2)ncn1CC(C)(C)N1CCOCC1	-11.9
c1cncc(OC2CCN(CCn3cc4ccccc4n3)CC2)c1	-25.2
Cc1ccc(S(=O)(=O)NC(=O)CCC(F)(F)F)cc1N(C)C	-1.96
CN1CCC(CNC(=O)c2cccc(NC(N)=O)c2)c2ccccc21 (centres undefined)	-2.27
CC(C)c1noc(CCC(=O)Nc2cc(C(F)(F)F)c[nH]c2=O)n1	-3.33
CC(C)CN1C(=O)C2(CCN(CC3CCOCC3)C2)c2ccccc21 (centres undefined)	-3.07

SMILES	cytotoxicity at 70.5 h [%]
CC(C)CN(C(=O)Nc1cccc(C(=O)N(C)C)c1)C1CC1	-10.3
O=C1CC(c2ccccc2)c2sc(C(=O)O)c(-c3ccccc3)c2N1 (centres undefined)	-8.23
CCC(C)Oc1ccc(CNCCNC(C)=O)cc1Cl (centres undefined)	-3.38
CC(C(=O)NCc1ccc(N2CCN(C)CC2)nc1)n1cccn1 (centres undefined)	-6.16
CN(C)C(=O)CO[C@H]1CN(Cc2cccc(F)c2)[C@@H]2CCCO[C@H]12	-0.497
Cn1ccc(C(=O)NCc2ccc(CN3CCCC3)cc2)cc1=O	-12.4
COc1cccc(-n2ccc3nc(N4CCCC4)ncc3c2=O)c1	-4.05
CCN(Cc1ccccc1)Cc1nc2c(cnn2C)c(=O)[nH]1	17
Cn1c(C(=O)N2CCOCC2)nc2c1CCN(c1ncccn1)C2	-1.44
O=C(CSc1ccc2c(c1)OCCO2)NS(=O)(=O)C1CCCCC1	0.938
Cc1nc([C@H]2C[C@H]3CN(C(=O)c4cc(C)c(C)s4)CC[C@@H]3O2)no1	-12.1
CC(C)NC(=O)c1cccc(Oc2ccc3nncn3n2)c1	23.3
O=C(O)C1(Cc2cccc(Cl)c2)CCCN(c2ncnc3[nH]ccc23)C1 (centres undefined)	-13
CCC1CN(CC(=O)NCCN(CC)CC)c2ccccc2S1 (centres undefined)	-6.69
CCn1nc(C)c2nc(C(C)C)nc(NCCCn3cccn3)c21	-4.58
O=C(c1cnccn1)N1CCC(F)(F)C2(CCN(c3ccccn3)C2)C1 (centres undefined)	-8.49
CCc1cnc(CN2CCOC(c3nc(C)n[nH]3)C2)o1 (centres undefined)	-7.69
Fc1ccc(OCCCNC2=NCCCN2)cc1	-5.27
N#Cc1ccnc(N2CCN(Cc3cccc(F)c3)CC2)c1	-6.08
CC(=O)Nc1ccn(Cc2ccccc2)n1	-12.2
CC(Cn1cccn1)NCc1nc(-c2ccc3c(c2)OCO3)no1 (centres undefined)	13
OC1(Cn2ccc3ccncc32)CCN(Cc2ccccn2)CC1	-2.48
CN1CC[C@]2(CN(C(=O)c3ccc[nH]3)C[C@H]2c2ccccc2)C1=O	-3.54

SMILES	cytotoxicity at 70.5 h [%]
O=C(NCCNC(=O)N1CCC(c2ccccc2)C1)C1CC1 (centres undefined)	-6.87
CC(C)(C)C(=O)NCCn1ccc(-c2ccccn2)n1	-1.26
CC(=O)Nc1nc(CN2CCCCC2Cn2cncn2)cs1 (centres undefined)	0.302
O=C(c1ccc(SC(F)F)cc1)N1CCOCC1c1ncon1 (centres undefined)	-3.71
Cc1ccoc1C(=O)N1CCc2ccc(=O)n(CCN(C)C)c2CC1	-3.74
O=C(NCCNc1ccccn1)N1CCC(O)CC1	3.99
Cn1cnnc1-c1cncc(NCc2ccccc2Br)c1	13.6
COc1ccccc1OC1CCN(C(=O)c2cnc(C)s2)CC1	-4.88
Cc1n[nH]c(C2CN(CC(=O)NCCc3ccccc3C)CCO2)n1 (centres undefined)	-109
Cc1ccc(CN2CC3(CCN(C(=O)C4CC4)CC3)CC2C(=O)O)o1 (centres undefined)	-2.54
Cc1cc(NC(=O)C(c2cccc(F)c2)N2CCOCC2)ccn1 (centres undefined)	13.3
O=C(CCCN1CCOCC1)N1CCCC(CO)(CC2CC2)C1 (centres undefined)	-9.81
Cc1nc[nH]c1CN(C)Cc1cnn(-c2ccc(F)cc2)c1	28.9
Cc1cc(C)c(C)c(OCCCNC(=O)NC(C)c2nncn2C)c1 (centres undefined)	14.5
CN(C)CCN1CCOCC2(CCCN(C(=O)c3ccccc3)C2)C1 (centres undefined)	-2.82
O=c1n(CC2COCCO2)nc(CC2CCNCC2)n1-c1ccccc1 (centres undefined)	-3.66
O=S(=O)(c1ccccc1)N1C(CN2CCOCC2)[C@]2(O)CC[C@H]1CC2 (some centres undefined)	16.5
O=C1NCCN(C(=O)CCN2CCCO2)C1c1cccc(F)c1 (centres undefined)	4.41
CN(C)C(=O)Cn1c2c(ccc1=O)CC(NCc1ccoc1)CC2 (centres undefined)	1.44
O=C1[C@@H]2CN(c3ncc(Cl)cc3F)C[C@]2(C(=O)O)CN1CC1CC1	-5.98
O=S(=O)(c1ccccc1F)N1CCCC(c2nccs2)C1 (centres undefined)	-1.24
CCNS(=O)(=O)C1CCN(C(=O)c2ccc(CC)o2)C1 (centres undefined)	-9.53
CCOc1cccc(NCc2cnc(N3CCN(C)CC3)nc2)n1	3.56

SMILES	cytotoxicity at 70.5 h [%]
O=C(NCCc1ccn(-c2ccccc2)n1)N1CCC1	-2.97
O=C(CN1CCOC(Cn2cccn2)C1)NC(C1CC1)C1CC1 (centres undefined)	-6.99
c1csc(CNCC2COCc3c(-c4ccoc4)nnn3C2)n1 (centres undefined)	-8.83
COc1ccccc1[C@@H]1CN(C(=O)Cc2csc(C)n2)C[C@H]1C(=O)O	12.8
CCCOC1CCCN(C(=O)c2[nH]nc(C)c2Br)C1 (centres undefined)	-8.95
CCc1ccc(C2COCCN2C(=O)Nc2ccc(C#N)cc2)o1 (centres undefined)	47.1
N#Cc1cccc(C(=O)NS(=O)(=O)c2ccc(C#N)c(Cl)c2)c1	27.3
CN(Cc1nccn1C)c1ccc(-c2nccn2C)nn1	18.2
CCn1ccnc1CN1CCCC(CO)(Cc2cccc(OC)c2)C1 (centres undefined)	-14.1
CCc1[nH]ncc1C(=O)N1CCN(c2nc(C)cc(OC)n2)CC1	-4.16
COc1ccc(C(=O)Cn2cnnc2[S+](C)[O-])cc1Cl (centres undefined)	-3.44
Cc1nc[nH]c1-c1nnc(SCC(=O)O)n1-c1ccccc1C(F)(F)F	-6.65
Cc1nn(CCCNC(=O)C2CCN(S(C)(=O)=O)CC2)cc1Br	-4.82
CN1CCC(CCNC(=O)c2ccc(N(C)S(C)(=O)=O)cc2Cl)CC1	-7.69
Cc1cnn(CC2CC2)c1NC(=O)c1cccnc1O	14.4
CN(CC(=O)N1CC(C)(C)[C@](O)(C2CC2)C1)Cc1cccnc1	-3.42
CN(CC(C)(CO)CO)C(=O)Nc1cc(F)cc(Cl)c1	-6.37
Cc1nnc(NC(=O)C2CSCN2C(=O)C2CCCC2)s1 (centres undefined)	-3.18
O=C(N[C@@H]1CCNC[C@H]1O)c1ccc(O)c(Cl)c1	-8.26
CCCc1cc(=O)[nH]c(-n2nc(-c3cccs3)cc2N)n1	-12.8
Cc1cc2ccccc2n1CCC(=O)NCc1ncc[nH]1	-1.07
Cc1noc(C)c1C(=O)N(C)C(C)c1cccnc1 (centres undefined)	-15.6
